Legend:
recombinant human AChE = recombinant human AChE (Homo sapiens, UniProt P22303); assay: Reversible inhibition of AChE, Ellman method, enzyme-inhibitor dissociation constants; assay type: biochemical; conditions: ± standard error; ATCh substrate, 25 °C, pH 7.4
Protocol: (§1) As a source of BChE, a purified human BChE, and as AChE, a recombinant human AChE was used, both enzymes kindly provided by Dr. F. Nachon (Département de Toxicologie, Armed Forces Biomedical Research Institute, France). The concentrated stocks of enzymes (BChE: 5.6 µM; AChE: 0.20 µM) were diluted in a phosphate sodium buffer 0.1 M (pH 7.4) containing 0.1% BSA before starting the experiments.
(§2) Enzyme activities were measured spectrophotometrically by the Ellman method at […] using 0.30 mM DTNB as thiol reagent, ATCh as substrate and water in 0.1 M phosphate buffer, pH 7.4. For the inhibition measurements, the reaction mixture contained tested compounds instead of water. […] Measurements were done at 25 °C on a Tecan Infinite M200Pro plate reader (Austria). A detailed description of measurement protocol was described previously.
(§3) The reversible inhibition of BChE and AChE by tested compounds was measured by determining the decrease of enzyme activity towards ATCh in their presence. The activities of the enzymes were measured at different substrate concentrations ([S]; 0.050–0.50 mM) in the absence (v0) and presence (vi) of the given tested compounds concentration ([I]; 0.050–200 µM, depending on the compound) selected to inhibit the enzymes for 20–80%. At least three concentrations of inhibitors for each substrate concentration were used in at least three experiments. The apparent dissociation inhibition constant (Ki,app) was calculated applying the Hunter-Downs equation and linear regression analysis (1):(1) Ki,app=vi/v0−vi⋅I=KI+KI/KS⋅S where y-intercept determines the enzyme-inhibitor dissociation constants (K(I)), while x-intercept determines the enzyme-substrate dissociation constant, K(S). The determination of kinetic constants was carried out using the GraphPadPrism 6.0 program (GraphPad Software, San Diego, CA, USA).

purified human BChE = purified human BChE (Homo sapiens, UniProt P06276); assay: Reversible inhibition of BChE, Ellman method, enzyme-inhibitor dissociation constants; assay type: biochemical; conditions: for SI, selective index Ki(AChE)/Ki(BChE): times higher preference for BChE over AChE
Protocol: as §1, §2, §3

[1] = ± standard error, ATCh substrate, 25 °C, pH 7.4

Sequence of recombinant human AChE (P22303 32-614): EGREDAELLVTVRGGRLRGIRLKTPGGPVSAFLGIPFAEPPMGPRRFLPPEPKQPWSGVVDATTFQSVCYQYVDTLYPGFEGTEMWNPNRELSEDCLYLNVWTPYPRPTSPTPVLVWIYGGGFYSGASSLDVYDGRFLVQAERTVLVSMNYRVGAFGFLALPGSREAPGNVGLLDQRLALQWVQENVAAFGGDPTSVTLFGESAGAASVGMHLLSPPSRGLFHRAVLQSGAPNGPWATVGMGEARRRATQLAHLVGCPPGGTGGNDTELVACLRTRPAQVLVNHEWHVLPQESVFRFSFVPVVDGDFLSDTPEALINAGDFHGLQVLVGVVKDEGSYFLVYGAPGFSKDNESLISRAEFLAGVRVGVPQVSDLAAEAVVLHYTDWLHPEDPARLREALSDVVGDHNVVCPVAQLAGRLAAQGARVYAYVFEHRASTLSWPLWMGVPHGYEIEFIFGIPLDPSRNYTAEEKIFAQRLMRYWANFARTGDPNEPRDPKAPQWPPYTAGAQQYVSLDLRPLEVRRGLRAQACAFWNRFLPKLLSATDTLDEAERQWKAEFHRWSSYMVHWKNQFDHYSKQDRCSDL
Sequence of purified human BChE (P06276 29-602): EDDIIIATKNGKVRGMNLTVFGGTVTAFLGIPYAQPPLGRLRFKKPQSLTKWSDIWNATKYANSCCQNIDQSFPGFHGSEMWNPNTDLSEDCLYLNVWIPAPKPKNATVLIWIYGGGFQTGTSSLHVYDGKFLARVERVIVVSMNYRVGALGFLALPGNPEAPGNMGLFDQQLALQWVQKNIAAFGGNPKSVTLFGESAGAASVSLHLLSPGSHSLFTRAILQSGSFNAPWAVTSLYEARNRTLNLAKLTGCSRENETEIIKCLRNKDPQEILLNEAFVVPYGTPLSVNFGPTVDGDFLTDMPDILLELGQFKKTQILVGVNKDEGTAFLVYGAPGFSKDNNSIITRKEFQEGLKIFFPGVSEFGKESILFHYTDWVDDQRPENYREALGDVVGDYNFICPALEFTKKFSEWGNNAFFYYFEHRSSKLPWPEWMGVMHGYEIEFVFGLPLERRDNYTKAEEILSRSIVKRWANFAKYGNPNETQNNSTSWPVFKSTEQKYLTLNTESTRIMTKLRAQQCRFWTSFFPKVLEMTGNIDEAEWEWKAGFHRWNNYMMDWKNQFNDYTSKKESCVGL

SMILES | Ki (recombinant human AChE) | SI, selective index Ki(AChE)/Ki(BChE) (purified human BChE) | Ki (purified human BChE; [1]) | Stereoselectivity Ki(CN/CD) BChE (purified human BChE; ratio > 1: higher affinity toward CD over CN pseudo-enantiomer) | Ki (purified human BChE; stated in text as around)
C=CC1C[N+]2(Cc3cccc(F)c3F)CCC1C[C@H]2[C@H](O)c1ccnc2ccccc12 (stereo partly drawn) [CD 2,3F] | 19 ± 1 µM | 25 | 750 ± 30 nM |  | 
C=CC1C[N+]2(Cc3ccc(F)cc3F)CCC1C[C@H]2[C@H](O)c1ccnc2ccccc12 (stereo partly drawn) [CD 2,4F] | 6.4 ± 0.3 µM | 1.1 | 6100 ± 500 nM |  | 
C=CC1C[N+]2(Cc3c(F)cccc3F)CCC1C[C@H]2[C@H](O)c1ccnc2ccccc12 (stereo partly drawn) [CD 2,6F] | 7.7 ± 0.5 µM | 0.77 | 9900 ± 400 nM |  | 
C=CC1C[N+]2(Cc3c(F)cccc3Cl)CCC1C[C@H]2[C@H](O)c1ccnc2ccccc12 (stereo partly drawn) [CD 2Cl-6F, N-(2-chloro-6-fluorobenzyl)cinchonidinium bromide] | 9.9 ± 0.8 µM | 1.9 | 5000 ± 300 nM |  | 
C=CC1C[N+]2(Cc3ccc(Br)cc3F)CCC1C[C@H]2[C@H](O)c1ccnc2ccccc12 (stereo partly drawn) [CD 2F-4Br, N-(2-fluoro-4-bromobenzyl)cinchonidinium bromide] | 7.2 ± 0.4 µM | 10 | 680 ± 50 nM |  | 
C=CC1C[N+]2(Cc3c(F)cccc3C(F)(F)F)CCC1C[C@H]2[C@H](O)c1ccnc2ccccc12 (stereo partly drawn) [CD 2F-6CF3, N-(2-fluoro-6-trifluoromethylbenzyl)cinchonidinium bromide] | 35 ± 4 µM | 6.1 | 5700 ± 600 nM |  | 
C=CC1C[N+]2(Cc3ccccc3F)CCC1C[C@H]2[C@H](O)c1ccnc2ccccc12 (stereo partly drawn) [CD 2F] | 33 ± 1 µM | 40 | 820 ± 30 nM |  | 
C=CC1C[N+]2(Cc3ccc(F)c(F)c3)CCC1C[C@H]2[C@H](O)c1ccnc2ccccc12 (stereo partly drawn) [CD 3,4F] | 13 ± 1 µM | 10 | 1300 ± 100 nM |  | 
C=CC1C[N+]2(Cc3cc(F)cc(F)c3)CCC1C[C@H]2[C@H](O)c1ccnc2ccccc12 (stereo partly drawn) [CD 3,5F] | 10 ± 1 µM | 123 | 81 ± 10 nM | 78 | ~76 nM
C=CC1C[N+]2(Cc3cccc(C(F)(F)F)c3)CCC1C[C@H]2[C@H](O)c1ccnc2ccccc12 (stereo partly drawn) [CD 3CF3] | 34 ± 1 µM | 14 | 2400 ± 100 nM |  | 
C=CC1C[N+]2(Cc3cccc(F)c3)CCC1C[C@H]2[C@H](O)c1ccnc2ccccc12 (stereo partly drawn) [CD 3F, N-(meta-fluorobenzyl)cinchonidinium bromide] | 40 ± 2 µM | 533 | 75 ± 5 nM |  | ~76 nM
C=CC1C[N+]2(Cc3cccc(OC(F)(F)F)c3)CCC1C[C@H]2[C@H](O)c1ccnc2ccccc12 (stereo partly drawn) [CD 3OCF3] | 8.2 ± 1.1 µM | 1.1 | 7400 ± 400 nM |  | 
C=CC1C[N+]2(Cc3ccc(C(F)(F)F)cc3)CCC1C[C@H]2[C@H](O)c1ccnc2ccccc12 (stereo partly drawn) [CD 4CF3] | 21 ± 1 µM | 11 | 2000 ± 100 nM |  | 
C=CC1C[N+]2(Cc3ccc(F)cc3)CCC1C[C@H]2[C@H](O)c1ccnc2ccccc12 (stereo partly drawn) [CD 4F] | 69 ± 3 µM | 46 | 1500 ± 100 nM |  | 
C=CC1C[N+]2(Cc3ccc(OC(F)(F)F)cc3)CCC1C[C@H]2[C@H](O)c1ccnc2ccccc12 (stereo partly drawn) [CD 4OCF3] | 7.3 ± 0.5 µM | 0.96 | 7600 ± 500 nM |  | 
C=CC1C[N+]2(Cc3ccccc3)CCC1C[C@H]2[C@H](O)c1ccnc2ccccc12 (stereo partly drawn) [CD Bzl] | 15 ± 2 µM | 200 | 75 ± 7 nM |  | 
C=CC1C[N+]2(Cc3cccc(F)c3F)CCC1C[C@@H]2[C@@H](O)c1ccnc2ccccc12 (stereo partly drawn) [CN 2,3F, N-(2,3-difluorobenzyl)cinchoninium bromide] | 46 ± 3 µM | 4.8 | 9600 ± 400 nM |  | 
C=CC1C[N+]2(Cc3ccc(F)cc3F)CCC1C[C@@H]2[C@@H](O)c1ccnc2ccccc12 (stereo partly drawn) [CN 2,4F, N-(2,4-difluorobenzyl)cinchoninium bromide] | 27 ± 1 µM | 4.5 | 6000 ± 200 nM |  | 
C=CC1C[N+]2(Cc3c(F)cccc3F)CCC1C[C@@H]2[C@@H](O)c1ccnc2ccccc12 (stereo partly drawn) [CN 2,6F, N-(2,6-difluorobenzyl)cinchoninium bromide] | 30 ± 2 µM | 5.8 | 5200 ± 200 nM |  | 

Reference: publication PMC9610298, “Synthesis, Biological Evaluation and Machine Learning Prediction Model for Fluorinated Cinchona Alkaloid-Based Derivatives as Cholinesterase Inhibitors” (Pharmaceuticals, 2022)
